# Measurements reported in patent US20130028955A1, “SUSTAINED RELEASE ORAL MATRIX AND METHODS OF MAKING THEREOF” (priority 2011, published 2013).
# Structures can show the parent of a compound that is named as a salt.
# Experiment: Dissolution, USP basket apparatus 1, simulated intestinal fluid pH 6.8
# Format: physicochemical
# Conditions: for drug release 0.5 h / drug release 1 h / drug release 2 h / drug release 4 h / drug release 8 h / drug release 12 h / drug release 24 h: Table 7, Example VII combination tablet; for drug release 0 h: Table 7, Example VII tablet: 20% silicone PSA, 8.7% tramadol HCl, 71.7% acetaminophen
# Protocol: The release rate of these formulations were carried out using USP dissolution basket apparatus 1 (Vankel, Inc) using about 100 rpm stirring speed at about 37 C in about 900 ml of the dissolution medium. The dissolution medium used was simulated intestinal fluid with a pH of about 6.8. At predetermined time intervals, 1 ml of sample was withdrawn and was analyzed to determine acetaminophen concentration. Concentration of acetaminophen in the dissolution medium was determined using a HPLC method. A C8 column was used using mobile phase of 65% methanol and 35% water. Flow rate was 1 ml/min and the UV detection wavelength was 254 nm. The results are reported as average of six tablets. […] Total weight of each tablet was 500 mg. The diameters of the tablets were 13 mm.
SMILES,drug release 0.5 h,drug release 1 h,drug release 2 h,drug release 4 h,drug release 8 h,drug release 12 h,drug release 24 h,drug release 0 h
"CC(=O)Nc1ccc(O)cc1 [APAP, acetaminophen]",13.5,22.6,31.9,44.8,61.1,74.3,86.0,0.0
"COc1cccc(C2(O)CCCCC2CN(C)C)c1 (stereo not shown) [Tramadol HCl, Tramadol hydrochloride]",15.8,23.2,32.1,43.4,56.8,68.3,89.4,0.0
